According to US20240294548A1, “TRICYCLIC SULTAMS AND SULFAMIDES AS ANTITUMOR AGENTS” (PELOTON THERAPEUTICS INC., priority 2021, published 2024):
Like-named read-outs stand apart in the source and are kept apart here.

Tests used:
[1] = biological target: T1, DCAF15 (DDA1-DDB1ΔB-DCAF15Δpro) (Homo sapiens, UniProt Q66K64, DEL276-383); assay: DCAF15 displacement assay (displacement FRET, probe PT7795); type: binding
T1 construct: made in house; host or cells: Sf9 (Bac-to-Bac baculovirus)
Text: (§1) Proteins used for the assays were as follows: Human DDA1 (UniProt:Q9BW61), DDB1 (UniPro: Q16531), and DCAF15 (UniProt: Q66K64) coding sequences were cloned into pFastBac1 vectors and were co-expressed in Sf9 cells using Bac-to-Bac baculovirus expression system (Thermo Fisher Scientific). The expression construct for DCAF15 includes a N-terminal His6-tag to facilitate the purification.
DCAF15 Displacement Assay (Displacement FRET KD)
Synthesis of the probe PT7795 is described in the article.
Binding of PT7795 to DDA1-DDB1AB-DCAF15Δpro was measured by the FRET signal between europium-labeled anti-His antibody (AD0205, Perkin Elmer) that is associated with His-tagged DCAF15 and ALX647 moiety in PT7795. […] After equilibrating for 2-3 hours at 4° C., the plate was removed from the incubator, briefly spun, then read on a Spark 10 (Tecan) at the excitation/emission wavelength of 340 nm/615 nm and 340 nm/665 nm.
Binding of compounds in this disclosure to DCAF15 was measured in a competition by the displacement of PT7795. The concentration of PT7795 was kept at 300 nM while the concentration of a compound was varied from 0.01 to 100 μM. The incubation time was increased to 18 hours for enhanced signal to noise level.
F=Fmin+(Fmax−Fmin)/(1+10^(logIC50−log[Compound])^n) (Equation 2)
The Kds can then be calculated from IC50s using Equation 3 (Cheng-Prusoff equation).

[2] = biological target: T2, DCAF15 RBM39 ternary complex (Homo sapiens, UniProt Q14498+Q66K64, DEL276-383); assay: DCAF15 RBM39 complex formation assay (FRET); type: biochemical
T2 construct: Amino acids 150 to 331 of RBM39 were cloned into pGEX4T3; GST (from the pGEX4T3 vector, own knowledge) followed by a TEV cleavage site (N); made in house; host or cells: Sf9 baculovirus (DDB1ΔB/DCAF15); E. coli (RBM39 R1R2)
Text: as §1
DCAF15 RBM39 Complex Formation Assay
LANCE Eu-W1024 Anti-6×His and SureLight Allophycocyanin-anti-FLAG antibodies were purchased from Perkin Elmer. Human DDB1DB and His-tagged DCAF15 were co-expressed in baculovirus/sf9 system. […] The His-tagged DCAF15 contains six histidine residues directly preceding the DCAF15 sequence without any linker. An RBM39 fragment containing RRM1 and RRM2 was expressed in E. coli.
A compound of the present disclosure in DMSO (2 μL) was transferred to a 384-well assay plate. Compound was added in 14 points, 3-fold serial dilution (1 μM to 0.6 pico molar) in DMSO. […] FRET assay buffer (25 mM HEPES, pH 7.5, 100 mM NaCl, […], 0.5 mM TCEP, 0.005% Tween-20, 0.2 nM Eu-W1024 Anti-6×His, 50 nM SureLight Allophycocyanin-anti-FLAG, 20 nM DDB1DB/DCAF15, 50 nM RBM39 R1R2) was added and the resulting solution was incubated overnight at 4° C. […] Low signal controls containing no compound and high signal controls containing 10 mM indisulam were measured for each plate.
EC50 values were calculated using Dotmatics template equation for 4-parameter fit.
Results are expressed as % formation using the following equation: […]

[3] = displacement of PT7795 (300 nM), compound 0.01 to 100 μM, 18 hours incubation, read-out: DCAF15 displacement IC50
[4] = FRET ratio, 20 nM DDB1DB/DCAF15, 50 nM RBM39 R1R2, overnight at 4° C., read-out: DCAF15 RBM39 ternary complex EC50

T2 sequence (Q66K64 with tags, fused parts or gaps DEL276-383): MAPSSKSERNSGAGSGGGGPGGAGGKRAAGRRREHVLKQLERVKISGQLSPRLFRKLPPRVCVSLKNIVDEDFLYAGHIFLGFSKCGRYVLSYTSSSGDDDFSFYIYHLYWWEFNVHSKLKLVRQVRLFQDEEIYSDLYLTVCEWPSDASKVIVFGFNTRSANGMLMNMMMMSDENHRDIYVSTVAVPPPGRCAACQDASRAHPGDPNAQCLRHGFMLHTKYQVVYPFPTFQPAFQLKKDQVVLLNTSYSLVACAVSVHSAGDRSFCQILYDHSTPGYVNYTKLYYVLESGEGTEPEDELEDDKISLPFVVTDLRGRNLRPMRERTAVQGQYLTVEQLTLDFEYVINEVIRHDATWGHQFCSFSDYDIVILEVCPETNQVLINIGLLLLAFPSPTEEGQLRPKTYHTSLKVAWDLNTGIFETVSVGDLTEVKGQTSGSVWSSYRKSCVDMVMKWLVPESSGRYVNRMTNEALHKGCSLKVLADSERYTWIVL
T2 sequence (Q14498 150-331, stated change not applied): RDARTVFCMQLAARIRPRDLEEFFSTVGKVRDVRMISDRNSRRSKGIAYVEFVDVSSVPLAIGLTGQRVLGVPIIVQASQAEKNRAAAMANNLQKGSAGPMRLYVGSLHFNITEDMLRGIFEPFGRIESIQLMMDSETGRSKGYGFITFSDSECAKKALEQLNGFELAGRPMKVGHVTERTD

Structure (SMILES) | IC50 [1, 3] | EC50 [2, 4] | IC50 [1] | EC50 [2]
COCCN1Cc2ccc3c(C#N)c[nH]c3c2NS1(=O)=O [Compound 100, 3-(2-methoxyethyl)-1,3,4,9-tetrahydro-[1,2,6] thiadiazino[4,3-g]indole-7-carbonitrile 2,2-dioxide] | ≥ 100 µM | 0.168 µM |  | 
C=CCN1Cc2cc(Cl)c3c(Cl)c[nH]c3c2NS1(=O)=O [Compound 93, 3-allyl-6,7-dichloro-1,3,4,9-tetrahydro-[1,2,6] thiadiazino[4,3-g]indole 2,2-dioxide] | 0.773 µM | 0.0016 µM |  | 
CS(=O)(=O)CCCN1Cc2cc(Cl)c3c(Cl)c[nH]c3c2NS1(=O)=O [Compound 77, 6,7-dichloro-3-(3-(methylsulfonyl)propyl)-1,3,4,9-tetrahydro-[1,2,6] thiadiazino[4,3-g]indole 2,2-dioxide] | 0.68 µM | 0.0008 µM |  | 
O=S1(=O)Nc2c(ccc3c(Cl)c[nH]c23)CN1C1CCCOC1 (centres unmarked) [Compound 80, 7-chloro-3-(tetrahydro-2H-pyran-3-yl)-1,3,4,9-tetrahydro-[1,2,6]thiadiazino[4,3-g]indole 2,2-dioxide] | 1.81 µM | 0.0182 µM |  | 
Cn1c(CN2Cc3cc(Cl)c4c(Cl)c[nH]c4c3NS2(=O)=O)cccc1=O [Compound 62, 6-((6,7-dichloro-2,2-dioxido-4,9-dihydro-[1,2,6]thiadiazino[4,3-g]indol-3(1H)-yl)methyl)-1-methylpyridin-2(1H)-one] | 1.07 µM | 0.155 µM |  | 
O=S1(=O)Nc2c(cc(Cl)c3c(Cl)c[nH]c23)CN1CC1CC(O)C1 (centres unmarked) [Compound 88, 6,7-dichloro-3-((3-hydroxycyclobutyl)methyl)-1,3,4,9-tetrahydro-[1,2,6]thiadiazino[4,3-g]indole 2,2-dioxide] | 0.231 µM | 0.0016 µM |  | 
O=S1(=O)Nc2c(cc(Cl)c3c(Cl)c[nH]c23)CN1CC1CCCOC1 (centres unmarked) [Compound 95, 6,7-dichloro-3-((tetrahydro-2H-pyran-3-yl)methyl)-1,3,4,9-tetrahydro-[1,2,6] thiadiazino[4,3-g]indole 2,2-dioxide] | 0.0949 µM | 0.0012 µM |  | 
COCCN1Cc2ccc3c(Cl)c[nH]c3c2NS1(=O)=O [Compound 81, 7-chloro-3-(2-methoxyethyl)-1,3,4,9-tetrahydro-[1,2,6] thiadiazino[4,3-g]indole 2,2-dioxide] | 32 µM | 0.0177 µM |  | 
O=S1(=O)Nc2c(cc(Cl)c3c(Cl)c[nH]c23)CN1CCC1COC1 [Compound 94, 6,7-dichloro-3-(2-(oxetan-3-yl)ethyl)-1,3,4,9-tetrahydro-[1,2,6] thiadiazino[4,3-g]indole 2,2-dioxide] | 0.362 µM | 0.0029 µM |  | 
O=S1(=O)Nc2c(cc(Cl)c3c(Cl)c[nH]c23)CN1CC1CCCO1 (centres unmarked) [Compound 89, 6,7-dichloro-3-((tetrahydrofuran-2-yl)methyl)-1,3,4,9-tetrahydro-[1,2,6] thiadiazino[4,3-g]indole 2,2-dioxide] | 0.574 µM | 0.0008 µM |  | 
Cn1ccc(CN2Cc3cc(Cl)c4c(Cl)c[nH]c4c3NS2(=O)=O)cc1=O [Compound 61, 4-((6,7-dichloro-2,2-dioxido-4,9-dihydro-[1,2,6]thiadiazino[4,3-g]indol-3(1H)-yl)methyl)-1-methylpyridin-2(1H)-one] | 1.24 µM | 0.123 µM |  | 
O=S1(=O)Nc2c(ccc3c(Cl)c[nH]c23)CN1c1cccnc1 [Compound 82, 7-chloro-3-(pyridin-3-yl)-1,3,4,9-tetrahydro-[1,2,6]thiadiazino[4,3-g]indole 2,2-dioxide] | 3.32 µM | 0.0011 µM |  | 
COCCN1Cc2cc(F)c3c(Cl)c[nH]c3c2NS1(=O)=O [Compound 79, 7-chloro-6-fluoro-3-(2-methoxyethyl)-1,3,4,9-tetrahydro-[1,2,6] thiadiazino[4,3-g]indole 2,2-dioxide] | 19.5 µM | 0.0089 µM |  | 
Nc1ccc(CN2Cc3cc(Cl)c4c(Cl)c[nH]c4c3NS2(=O)=O)cc1 [Compound 78, 3-(4-aminobenzyl)-6,7-dichloro-1,3,4,9-tetrahydro-[1,2,6]thiadiazino[4,3-g]indole 2,2-dioxide] | 1.17 µM | 0.0007 µM |  | 
O=S1(=O)Nc2c(cc(Cl)c3c(Cl)c[nH]c23)CN1CC1CCCNC1 (centres unmarked) [Compound 90, 6,7-dichloro-3-(piperidin-3-ylmethyl)-1,3,4,9-tetrahydro-[1,2,6] thiadiazino[4,3-g]indole 2,2-dioxide] |  |  | 0.274 µM | 0.001 µM
O=c1cc(CN2Cc3cc(Cl)c4c(Cl)c[nH]c4c3NS2(=O)=O)c(Cl)c[nH]1 [Compound 98, 5-chloro-4-((6,7-dichloro-2,2-dioxido-4,9-dihydro-[1,2,6]thiadiazino [4,3-g]indol-3(1H)-yl)methyl)pyridin-2(1H)-one] | 0.181 µM | 0.0023 µM |  | 
COCCN1Cc2cc(F)c3c(C#N)c[nH]c3c2NS1(=O)=O [Compound 99, 6-fluoro-3-(2-methoxyethyl)-1,3,4,9-tetrahydro-[1,2,6] thiadiazino[4,3-g]indole-7-carbonitrile 2,2-dioxide] | 30.8 µM | 0.212 µM |  | 
O=C(CN1Cc2cc(Cl)c3c(Cl)c[nH]c3c2NS1(=O)=O)N1CCOCC1 [Compound 92, 2-(6,7-dichloro-2,2-dioxido-4,9-dihydro-[1,2,6]thiadiazino[4,3-g]indol-3(1H)-yl)-1-morpholinoethan-1-one] | 0.965 µM | 0.0007 µM |  | 
O=c1[nH]ccc(CN2Cc3cc(Cl)c4c(Cl)c[nH]c4c3NS2(=O)=O)c1Cl [Compound 97, 3-chloro-4-((6,7-dichloro-2,2-dioxido-4,9-dihydro-[1,2,6]thiadiazino [4,3-g]indol-3(1H)-yl)methyl)pyridin-2(1H)-one] |  | 0.0017 µM |  | 
CC(=O)N1CCCC(CN2Cc3cc(Cl)c4c(Cl)c[nH]c4c3NS2(=O)=O)C1 (centres unmarked) [Compound 91, 1-(3-((6,7-dichloro-2,2-dioxido-4,9-dihydro-[1,2,6]thiadiazino[4,3-g]indol-3(1H)-yl)methyl)piperidin-1-yl) ethan-1-one] | 0.0518 µM | 0.0004 µM |  | 
O=S1(=O)Nc2c(cc(Cl)c3c(Cl)c[nH]c23)CN1CC1CCCCO1 (centres unmarked) [Compound 96, 6,7-dichloro-3-((tetrahydro-2H-pyran-2-yl)methyl)-1,3,4,9-tetrahydro-[1,2,6] thiadiazino[4,3-g]indole 2,2-dioxide] | 0.215 µM | 0.0012 µM |  | 
